{
  "source": "patent EP4461368A1",
  "about": "“5H-PYRROLO[3,2-B:5,4-C']DIPYRIDINE DERIVATIVES AND 6,7,8,9-TETRAHYDRO-5H-PYRROLO[3,2-B:5,4-C']DIPYRIDINE DERIVATIVES USEFUL IN THE TREATMENT OF CANCER” (Institut Regional du Cancer de Montpellier, priority 2023, dated 2024)",
  "type_in_all_cases": "cell-based",
  "key": {"[1]": {"target": "T1, Chromatin-MDM2 (Homo sapiens, UniProt Q00987)", "T1 construct": "endogenous in cells; host or cells: IB111 liposarcoma cells", "T1 sequence (Q00987 whole entry)": "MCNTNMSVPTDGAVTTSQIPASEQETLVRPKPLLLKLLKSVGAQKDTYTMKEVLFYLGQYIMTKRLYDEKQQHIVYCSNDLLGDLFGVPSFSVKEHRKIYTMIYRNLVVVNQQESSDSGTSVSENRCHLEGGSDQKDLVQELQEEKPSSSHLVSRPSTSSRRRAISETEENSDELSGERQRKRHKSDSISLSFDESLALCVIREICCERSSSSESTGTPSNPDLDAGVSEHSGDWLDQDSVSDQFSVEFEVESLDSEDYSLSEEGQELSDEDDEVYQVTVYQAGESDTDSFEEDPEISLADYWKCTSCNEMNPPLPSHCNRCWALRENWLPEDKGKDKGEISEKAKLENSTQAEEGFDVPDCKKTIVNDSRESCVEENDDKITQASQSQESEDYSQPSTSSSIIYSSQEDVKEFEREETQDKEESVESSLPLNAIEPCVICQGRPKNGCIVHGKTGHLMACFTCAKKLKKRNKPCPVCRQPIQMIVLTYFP", "assay": "MDM2 degradation by western blot and immunofluorescence, chromatin-bound MDM2", "conditions": "degradation efficacy, cells collected 18 hours after compound addition", "procedure": "(§1) MDM2 degradation is measured by western blot and immunofluorescence.\n(§2) Cells were seeded in 6-well plates (Sarsted) in complete DMEM medium as to obtain triplicates for each condition (500 000 cells/well). After 24 hours, the compounds were added to the cells. Then, 18 hours later cells were collected for western blotting or immunofluorescence. • Western Blot: Cells were collected in Laemmli buffer, boiled and analyzed in 8% acrylamide gel. • Immunofluorescence: Cancer cells were fixed with paraformaldehyde (PFA) 4% for 15 minutes then permeabilized for 15 minutes at RT with phosphate-buffered saline (PBS) Triton 0.1% and blocked with Phosphate buffered saline-[…] (PBS-BSA) 0.3% for 1 hour at RT before overnight incubation at 4 °C with an anti- mouse monoclonal antibody against MDM2 (MABE340 Millipore). Immunodetection was performed using an Alexa 488-conjugated anti-mouse IgG antibody (Thermo Fisher) for 45 minutes at RT. Cover glasses were mounted with Mowiol (Biovalley) and DAPI (Sigma) before analysis on a Zeiss apotome."}, "[2]": {"target": "T2, Cytoplasmic- MDM2 (Homo sapiens, UniProt Q00987)", "T2 construct": "endogenous in cells; host or cells: hPac / ZR75.1 cancer cells", "T2 sequence (Q00987 whole entry)": "as above", "assay": "MDM2 degradation by western blot and immunofluorescence, cytoplasmic MDM2", "conditions": "degradation efficacy, cells collected 18 hours after compound addition", "procedure": "as §1, §2"}, "[3]": {"system": "cancer cells not exhibiting recruitment of MDM2 to chromatin (Hpac/ZR75.1)", "assay": "Cell survival, Sulforhodamine B assay (SRB assay), cells without recruitment of MDM2 to chromatin", "conditions": "Hpac/ZR75.1 cells, treated for 72 hours with increasing concentrations", "procedure": "(§3) Cell survival after MDM2 inhibitor treatment (IC50) was determined using the Sulforhodamine B assay (SRB assay).\n(§4) Cells were seeded in 96-well plates (Sarsted) in complete DMEM medium as to obtain triplicates for each condition (5 000 cells/well). After 24 hours, serial dilutions of the indicated compounds were added to the cells. […] Fixed SRB was finally dissolved in 10 mM Tris-HCl solution and 560nm absorbance was read using a PHERAstar FSX plate reader."}, "[4]": {"system": "cancer cells exhibiting recruitment of MDM2 to chromatin (IB111)", "assay": "Cell survival, Sulforhodamine B assay (SRB assay), cells with recruitment of MDM2 to chromatin", "procedure": "as §3, §4"}, "[5]": {"conditions": "treated with increasing concentrations"}},
  "data": [
    {"molecule": "COc1ccc2[nH]c3c(-c4cccc5ccccc45)nccc3c2n1.O=P(O)(O)O", "note": "[Compound 12, 2-methoxy-6-(naphthalen-1-yl)-5H-pyrrolo[3,2-b:5,4-c']dipyridine phosphate]", "values": [
      {"measurement": "Chromatin-MDM2 degradation", "setting": "[1]", "result": "++ (40%≤++<80%)"},
      {"measurement": "Cytoplasmic- MDM2 degradation", "setting": "[2]", "result": "- (<25%: no degradation: indicated \"-\" in the table)"},
      {"measurement": "efficiency on cancer cells not exhibiting recruitment of MDM2 to chromatin", "setting": "[3]", "result": "not efficient"}
    ]},
    {"molecule": "COc1ccc2[nH]c3c(-c4ccc(F)c5ccccc45)nccc3c2n1.Cl", "note": "[Compound 17, 6-(4-fluoronaphthalen-1-yl)-2-methoxy-5H-pyrrolo [3,2-b: 5,4-c']dipyridine hydrochloride]", "values": [
      {"measurement": "Chromatin-MDM2 degradation", "setting": "[1]", "result": "+ (25%≤+<40%)"},
      {"measurement": "Cytoplasmic- MDM2 degradation", "setting": "[2]", "result": "- (<25%: no degradation: indicated \"-\" in the table)"}
    ]},
    {"molecule": "COc1ccc2[nH]c3c(-c4cccc5ccccc45)nccc3c2n1.O=S(=O)(O)O", "note": "[Compound 13, 2-methoxy-6-(naphthalen-1-yl)-5H-pyrrolo[3,2-b:5,4-c']dipyridine sulfate]", "values": [
      {"measurement": "Chromatin-MDM2 degradation", "setting": "[1]", "result": "++ (40%≤++<80%)"},
      {"measurement": "Cytoplasmic- MDM2 degradation", "setting": "[2]", "result": "- (<25%: no degradation: indicated \"-\" in the table)"},
      {"measurement": "efficiency on cancer cells not exhibiting recruitment of MDM2 to chromatin", "setting": "[3]", "result": "not efficient"}
    ]},
    {"molecule": "COc1ccc2[nH]c3c(-c4ccnc5ccccc45)nccc3c2n1", "note": "[Compound 6, 2-methoxy-6-(quinolin-4-yl)-5H-pyrrolo[3,2-b:5,4-c']dipyridine]", "values": [
      {"measurement": "Chromatin-MDM2 degradation", "setting": "[1]", "result": "+ (25%≤+<40%)"},
      {"measurement": "Cytoplasmic- MDM2 degradation", "setting": "[2]", "result": "- (<25%: no degradation: indicated \"-\" in the table)"}
    ]},
    {"molecule": "COc1ccc2[nH]c3c(-c4cccc5ccccc45)nccc3c2n1.O=C(O)/C=C/C(=O)O", "note": "[Compound 10, 2-methoxy-6-(naphthalen-1-yl)-5H-pyrrolo[3,2-b:5,4-c']dipyridine fumarate]", "values": [
      {"measurement": "Chromatin-MDM2 degradation", "setting": "[1]", "result": "+++ (+++ ≥ 80%)"},
      {"measurement": "Cytoplasmic- MDM2 degradation", "setting": "[2]", "result": "- (<25%: no degradation: indicated \"-\" in the table)"},
      {"measurement": "efficiency on cancer cells not exhibiting recruitment of MDM2 to chromatin", "setting": "[3]", "result": "not efficient"}
    ]},
    {"molecule": "2-methoxy-6-(5,6,7,8-tetrahydronaphthalen-1-yl)-5H-pyrrolo[3,2-b:5,4-c'] dipyridine [Compound 14]", "values": [
      {"measurement": "Chromatin-MDM2 degradation", "setting": "[1]", "result": "+++ (+++ ≥ 80%)"},
      {"measurement": "Cytoplasmic- MDM2 degradation", "setting": "[2]", "result": "- (<25%: no degradation: indicated \"-\" in the table)"},
      {"measurement": "IC50", "setting": "[4]; treated for 72 hours with increasing concentrations", "result": "< 500", "unit": "nM"},
      {"measurement": "efficiency on cancer cells not exhibiting recruitment of MDM2 to chromatin", "setting": "[3]", "result": "not efficient"}
    ]},
    {"molecule": "COc1ccc2[nH]c3c(-c4cccc5c4CCCC5)nccc3c2n1.Cl", "note": "[Compound 16, 2-methoxy-6-(5,6,7,8-tetrahydronaphthalen-1-yl)-5H-pyrrolo[3,2-b:5,4-c']dipyridine hydrochloride]", "values": [
      {"measurement": "Chromatin-MDM2 degradation", "setting": "[1]", "result": "+++ (+++ ≥ 80%)"},
      {"measurement": "Cytoplasmic- MDM2 degradation", "setting": "[2]", "result": "- (<25%: no degradation: indicated \"-\" in the table)"},
      {"measurement": "IC50", "setting": "[4]; [5]", "result": "< 500", "unit": "nM"},
      {"measurement": "efficiency on cancer cells not exhibiting recruitment of MDM2 to chromatin", "setting": "[3]", "result": "not efficient"}
    ]},
    {"molecule": "COc1ccc2[nH]c3c(-c4cccc5ccccc45)nccc3c2n1.O=C(O)CC(O)(CC(=O)O)C(=O)O", "note": "[Compound 11, 2-methoxy-6-(naphthalen-1-yl)-5H-pyrrolo[3,2-b:5,4-c']dipyridine 2-hydroxypropane-1,2,3-tricarboxylate]", "values": [
      {"measurement": "Chromatin-MDM2 degradation", "setting": "[1]", "result": "+++ (+++ ≥ 80%)"},
      {"measurement": "Cytoplasmic- MDM2 degradation", "setting": "[2]", "result": "- (<25%: no degradation: indicated \"-\" in the table)"},
      {"measurement": "efficiency on cancer cells not exhibiting recruitment of MDM2 to chromatin", "setting": "[3]", "result": "not efficient"}
    ]},
    {"molecule": "COc1ccc2[nH]c3c(-c4ccc(F)c5ccccc45)nccc3c2n1", "note": "[Compound 15, 6-(4-fluoronaphthalen-1-yl)-2-methoxy-5H-pyrrolo [3,2-b: 5,4-c'] dipyridine]", "values": [
      {"measurement": "Chromatin-MDM2 degradation", "setting": "[1]", "result": "++ (40%≤++<80%)"},
      {"measurement": "Cytoplasmic- MDM2 degradation", "setting": "[2]", "result": "- (<25%: no degradation: indicated \"-\" in the table)"},
      {"measurement": "IC50", "setting": "[4]; [5]", "result": "< 500", "unit": "nM"},
      {"measurement": "efficiency on cancer cells not exhibiting recruitment of MDM2 to chromatin", "setting": "[3]", "result": "not efficient"}
    ]},
    {"molecule": "COc1ccc2[nH]c3c(-c4cccc5ccccc45)nccc3c2n1", "note": "[Compound 1, 2-methoxy-6-(naphthalen-1-yl)-5H-pyrrolo[3,2-b:5,4-c']dipyridine]", "values": [
      {"measurement": "Chromatin-MDM2 degradation", "setting": "[1]", "result": "+++ (+++ ≥ 80%)"},
      {"measurement": "Cytoplasmic- MDM2 degradation", "setting": "[2]", "result": "- (<25%: no degradation: indicated \"-\" in the table)"},
      {"measurement": "IC50", "setting": "[4]; [5]", "result": "< 500", "unit": "nM"},
      {"measurement": "efficiency on cancer cells not exhibiting recruitment of MDM2 to chromatin", "setting": "[3]", "result": "not efficient"}
    ]},
    {"molecule": "COc1ccc2[nH]c3c(-c4ccnc5nccnc45)nccc3c2n1", "note": "[Compound 3, 2-methoxy-6-(pyrido[2,3-b]pyrazin-8-yl)-5H-pyrrolo[3,2-b:5,4-c'] dipyridine]", "values": [
      {"measurement": "Chromatin-MDM2 degradation", "setting": "[1]", "result": "+ (25%≤+<40%)"},
      {"measurement": "Cytoplasmic- MDM2 degradation", "setting": "[2]", "result": "- (<25%: no degradation: indicated \"-\" in the table)"}
    ]},
    {"molecule": "COc1ccc2[nH]c3c(-c4cccc5ccccc45)nccc3c2n1.Cl", "note": "[Compound 4, 2-methoxy-6-(naphthalen-1-yl)-5H-pyrrolo[3,2-b:5,4-c']dipyridine hydrochloride]", "values": [
      {"measurement": "Chromatin-MDM2 degradation", "setting": "[1]", "result": "+++ (+++ ≥ 80%)"},
      {"measurement": "Cytoplasmic- MDM2 degradation", "setting": "[2]", "result": "- (<25%: no degradation: indicated \"-\" in the table)"},
      {"measurement": "efficiency on cancer cells not exhibiting recruitment of MDM2 to chromatin", "setting": "[3]", "result": "not efficient"}
    ]}
  ]
}
